Measured values published in paper PMC9563556, “Antibacterial and anti-inflammatory properties of host defense peptides against Staphylococcus aureus” (iScience, 2022).
“Also recorded” adds a separate entry of the source.

Key:
[1] = tested on: Staphylococcus aureus strain SH1000; assay: Peptides direct antibacterial properties, broth micro-dilution, growth by OD 600 nm; assay type: cell-based; conditions: for direct antibacterial effect on S. aureus growth: broth micro-dilution in THB, inoculum 5 x 10^5 CFU/mL, 37°C, OD 600 nm every 5 min for 12 h, concentration range of peptide
Protocol: All experiments used GFP-labelled Staphylococcus aureus strain SH1000, transformed with a GFP-expressing plasmid pCM29 to constitutively express GFP, as previously described ([Boero et al., 2021]). Bacteria were grown overnight in Todd-Hewitt broth (THB) with 10 μg/mL chloramphenicol to reach stationary phase.
Peptides were diluted at different concentrations in α-MEM supplemented with 10% FBS or in THB when testing their effects on macrophages or bacteria, respectively.
Peptides direct antibacterial properties were determined by broth micro-dilution method. Overnight bacterial suspension was diluted in THB to reach a final inoculum concentration of 5 x 10^5 colony-forming units per mL (CFU/mL). Bacterial suspension and peptides dilutions were mixed in equal parts in a flat-bottom 96-well plate in triplicates in a total volume of 200 μL, and incubated at 37°C. Bacterial growth was monitored by measuring OD (600nm) continuously every 5 minutes for 12 h in Clariostar plate reader (BMG labtech) with gentle shaking before each measurement.

[2] = tested on: primary human macrophages; assay: LPS-induced TNF-α and IL-10 release of macrophages (ELISA); assay type: cell-based; conditions: for inhibition of macrophage LPS-mediated activation: 10 ng/mL LPS O111:B4, 24 h, TNF-α and IL-10 by ELISA
Protocol: Isolated monocytes were seeded in a 24-well plate at a density of 300,000 cells/well, except where otherwise stated. Monocytes were differentiated to macrophages by culture for 7 days in α-Minimum Essential Medium (α-MEM) supplemented with 10% (v/v) hyclone fetal bovine serum (hyFBS), 100 U/mL penicillin- streptomycin (1% p/s), and 40 ng/mL human recombinant M-CSF. Culture media was refreshed after 3-4 days.
Monocytes were seeded in a 96-well plate at a density of 150,000 cells/well. After 7 days differentiation, macrophages were incubated with fresh media containing a range of peptides concentrations alone or in combination with 10 ng/mL LPS O111:B4 from E. coli. After 24 h stimulation, the supernatant was collected to measure LDH levels or TNF-α and IL-10 by ELISA, according to the manufacturer’s instructions. Both LDH and ELISA assays were performed in three independent experiments with measurements in triplicate.

[3] = tested on: primary human macrophages; assay: Macrophage phenotype markers CD80 / CD163 by flow cytometry; assay type: cell-based; conditions: 24 h, selected peptide concentrations alone or with LPS, n = 3
Protocol: After 7 days differentiation, macrophages were incubated with fresh media with LPS, IL-4, and optimal concentrations of peptides alone or in combination with LPS. After 24 h stimulation, macrophages were detached from the culture plate and processed for staining into a 96-well plate. All washing steps were performed with cold 0,1% (w/v) bovine serum albumin (BSA)/PBS and centrifugation at 5 min, 500 x g. A panel of surface molecules was selected, based on previous reports for human macrophage polarization ([Ambarus et al., 2012]). The staining solutions were prepared by diluting the following fluorochrome-conjugated antibodies in PBS with 0,1% BSA and 1% (v/v) heat-inactivated human serum: CD16 (1:50); CD80 (1:50); CD163 (1:50). As a negative control, staining solution without antibodies was used. Cells were incubated with staining solutions for 30 min on ice, in the dark. Markers expression was measured via flow cytometer (FACSVerse, BD) and data analyzed using FlowJo.

[4] = tested on: primary human macrophages; assay: Human cytokine array G5 after LPS and peptide stimulation; assay type: cell-based; conditions: 24 h LPS and peptides, n = 2
Protocol: Qualitative expression of various cytokines and chemokines was measured in duplicate for selected conditions by human cytokine array G5, according to the manufacturer’s instructions.

[5] = tested on: primary human macrophages infected with S. aureus; assay: Confocal imaging, manual counting of intracellular bacteria ("peptides during infection" model); assay type: cell-based; conditions: 30 min infection, 50 randomly chosen cells
Protocol: According to the “peptides during infection” model, after 30 min infection cells were harvested and fixed as described for flow cytometry analysis. Cells membranes were stained with 3 μg/mL Alexa Fluor 647-labelled Wheat Germ Agglutinin (WGA) for 10 min at RT, on a shaking plate. Then, samples were transferred to CELLview slide previously coated with poly-L-lysine, and imaged on a Leica TCS SP5 microscope with a HCX PL AP CS 63x/1.40-0.60 OIL objective (Leica Microsystems). For each condition, the number of intracellular bacteria was counted in 50 randomly chosen cells. Images were adjusted for publication using Image J Fiji.

[6] = tested on: primary human macrophages infected with S. aureus; assay: "peptides during differentiation" model, S. aureus phagocytosis by flow cytometry; assay type: cell-based; conditions: for contribution to phagocytosis: peptides during monocyte differentiation, then infection
Protocol: (§1) To assess the peptides influence on macrophages antibacterial properties, three different infection models studying intracellular bacteria survival, as outlined in Figures 3A, 5A, and 5D, were adopted. In all models, selected concentrations of peptides were used: 65 μM IDR-1018; 10 μM CATH-2; 10 μM LL-37.
(§2) The first step concerned the “peptides during infection” model, where cells were washed twice before incubation with the peptides for 24 h and subsequently bacteria were directly added to the culture without any washing step. In a subsequent step we assessed the “peptides during differentiation”, where peptides were added to the differentiation media for the first 3 days and removed after the regular media change; cells were washed twice before infection. In the third step we tested “peptides with MSCs”, where macrophages were cultured in presence of MSCs and peptides for 24 h; before infection cells were washed twice. All washing steps, before or after infection, were performed using warm α-MEM.
(§3) In all three models described, the same S. aureus infection protocol was applied. An overnight bacterial culture was diluted in α-MEM to reach a final inoculum concentration of 1 x 10^7 CFU/mL, and opsonized in 5% human pooled serum (HPS) for 15 min at 37°C. Opsonized S. aureus was added to the culture at a multiplicity of infection (MOI) = 1, meaning 1 bacterium per eukaryotic cell. To synchronize bacterial uptake, plates were centrifuged for 5 min, 110 x g at RT, and then moved to the incubator at 37°C, 5% CO2 for additional 25 min or 24 h. To study intracellular bacterial survival, after 30 min the cells were washed twice and cultured in media supplemented with 100 μg/mL gentamicin and 20 μg/mL lysostaphin for 1 h. Afterwards, cells were washed twice and incubated in media with only 5 μg/mL gentamicin. This treatment allows only intracellular bacteria to survive, as both gentamicin and lysostaphin are unable to penetrate mammalian cell membranes within short time periods ([Hamza et al., 2013]; [Hamza and Li, 2014]).
(§4) Samples were analyzed by flow cytometry and CFU counting at 30 min and 24 h after infection. Cells for flow cytometry were detached from the culture plate using 1mM DPBS/EDTA in combination with gentle scraping. When macrophages were cultured together with MSCs, samples were first trypsinzed and then scraped in DPBS/EDTA if cells were still attached to the bottom of the culture plate. Cells were moved to a 96-well plate and fixed in paraformaldehyde 4% before analysis. Samples were measured with MACSquant VYB (Miltenyi Biotech) flow cytometer and data analyzed with FlowJo. […] Non-infected samples were used to set GFP fluorescence baseline and define the proportion of infected, GFP-positive cells.

[7] = tested on: intracellular S. aureus in primary human macrophages; assay: "peptides during infection" model, intracellular S. aureus by CFU counting; assay type: cell-based
Protocol: as §1, §2, §3
(§5) To quantify the numbers of intracellular bacteria, cells were lysed with Triton X 0,1% and then plated on Todd-Hewitt agar plates in serial dilutions. Plates were incubated overnight at 37°C after which colonies were counted.

[8] = tested on: intracellular S. aureus in primary human macrophages; assay: "peptides during differentiation" model, intracellular S. aureus by CFU counting; assay type: cell-based; conditions: 30 min and 24 h, n = 6
Protocol: as §1, §2
as §3, with “This treatment allows only intracellular bacteria to survive, as both gentamicin and lysostaphin are unable to penetrate mammalian cell membranes within short time periods ([Hamza et al., 2013]; [Hamza and Li, 2014]).” left out
as §5

[9] = cited from earlier work; for binding to LPS: "silent killing" mechanism, ref Coorens et al., 2017b
Source text: One may argue that the inhibition of LPS-mediated activation of macrophages was not caused by peptides’ direct interaction with the immune cells. It was shown via a mechanism named “silent killing” that CATH-2 and LL-37 bind LPS to inhibit macrophages receptors activation ([Coorens et al., 2017b]).

[10] = tested on: primary human macrophages infected with S. aureus; assay: "peptides during infection" model, S. aureus phagocytosis by flow cytometry; assay type: cell-based
Protocol: as §1, §2, §3, §4

[11] = tested on: primary human macrophages; conditions: ref Pena et al., 2013; cited from earlier work
Source text: In addition to TNF-α and IL-10, the peptides affected the expression of several other cytokines involved in immune cells’ activation and recruitment at the inflammation site (Figure 2E).

[12] = peptides 24 h before and during infection, 65 μM IDR-1018, 10 μM CATH-2, 10 μM LL-37, MOI 1, 30 min, n = 9
[13] = peptides in differentiation medium for the first 3 days, MOI 1, 30 min, n = 6

Substance	direct antibacterial effect on S. aureus growth ([1]; n = 3)	inhibition of macrophage LPS-mediated activation [2]	polarization of macrophages toward M1 (CD80) or M2 (CD163) phenotype [3]	bacterial uptake by macrophages, manual counting of intracellular bacteria [5]	contribution to phagocytosis [6]	effect on S. aureus surviving intracellularly (CFU), 30 min and 24 h ([7]; n = 9)	macrophage intracellular killing (CFU) [8]	binding to LPS [9]	bacterial load, geometric mean of GFP signal, 30 min [10, 12]	further results
LLGDFFRKSKEKIGKEFKRIVQRIKDFLRNLVPRTES [LL-37, human cathelicidin host defense peptide, InVivogen]	did not show antibacterial effects at any concentration tested	inhibited macrophage lipopolysaccharide-mediated activation	kept macrophages in an intermediate state	did not provide such effect	had no impact	no effects were observed	had no impact	bind LPS	–	expression of MIP-1β, RANTES and MCP-1,2,3 [4]: stronger inhibition of the LPS activation of macrophages
RFGRFLRKIRRFRPKVTITIQGSARF-NH2 [CATH-2, chicken cathelicidin host defense peptide, CPC Scientific]	had direct antibacterial properties	inhibited macrophage lipopolysaccharide-mediated activation	kept macrophages in an intermediate state	reduced the bacterial uptake by macrophages	lost its contribution to phagocytosis; also recorded: had no impact	–	had no impact	bind LPS	slightly reduced the bacterial load in macrophages	concentration arresting S. aureus growth, relative to that needed to inhibit macrophage LPS-mediated activation ([1]; THB, 12 h growth curve, compared with LPS inhibition assay): 10 times lower; number of S. aureus surviving intracellularly (CFU), 30 min ([7]; 10 μM CATH-2, 65 μM IDR-1018, 10 μM LL-37, n = 9): significantly reduced; number of S. aureus surviving intracellularly (CFU), 24 h ([7]; gentamicin and lysostaphin after 30 min, n = 9): not statistically significant; also recorded: comparable to the non-stimulated group
VRLIVAVRIWRR-NH2 [IDR-1018, bovine-derived cathelicidin host defense peptide, CPC Scientific]	did not show antibacterial effects at any concentration tested	inhibited macrophage lipopolysaccharide-mediated activation	–	reduced the bacterial uptake by macrophages	–	no effects were observed	had no impact	–	markedly decrease phagocytosis	concentration from which the start of S. aureus exponential growth is delayed ([1]; THB, 12 h growth curve, OD 600 nm, n = 3): ≥ 65 µM; concentration required for inhibition of LPS-mediated activation, compared among peptides ([2]; 10 ng/mL LPS, 24 h, TNF-α and IL-10 ELISA): higher concentrations of IDR-1018 were required; fraction of infected cells (macrophages that phagocytosed at least 1 bacterial cell), 30 min [10, 12]: significantly reduced the number of infected cells; amount of phagocytosed S. aureus, 24 h ([10]; peptides during infection model, 24 h after infection, n = 9 (Figure S5)): reduced the amount of phagocytosed S. aureus; number of internalized bacteria (geometric mean of GFP signal), 30 min [6, 13]: significantly reduced; proportion of infected macrophages, 30 min [6, 13]: significantly reduced; polarization of macrophages toward M1 or M2 phenotype [11]: did not correlate with the polarization of macrophages toward a clear M1 or M2 phenotype; binding affinity to LPS ([9]; ref Wieczorek et al., 2010): did not show significant binding affinity to LPS
